Consider 25 compounds from US6686475B2, “Compounds” (Beecham Group p.l.c., priority 1988, dated 2004).

For orientation: melting point means the temperature of the solid-liquid transition.

Series [1] has as its system C57bl/6 obese (ob/ob) mice. Briefly: Obese Mice, Oral Glucose Tolerance Test. The class given is in vivo. The note with it: 8 days on diet, oral glucose load 3 g/kg, vs control groups; for inhibition in vivo at 100 µmol/kg: level in diet 100 μmol kg^-1 of diet; for inhibition in vivo at 300 µmol/kg: level in diet 300 μmol kg^-1 of diet; for inhibition in vivo at 30 µmol/kg: level in diet 30 μmol kg^-1 of diet. As to the method:
Obese Mice, Oral Glucose Tolerance Test
C57bl/6 obese (ob/ob) mice were fed on powdered oxoid diet. After at least one week, the mice continued on a powdered oxoid diet or were fed powdered oxoid diet containing the test compound. After 8 days on the supplemented diet all of the mice were fasted for 5 hours prior to receiving an oral load of glucose (3 g/kg). Blood samples for glucose analysis were taken 0, 45, 90 and 135 minutes after glucose administration and the results appear below as the percentage reduction in area under the blood glucose curve where test compound treated groups are compared with the control groups. 7 mice were used for each treatment.

The test system of series [2] is spontaneously hypertensive rats. Briefly: Anti-Hypertensive Activity, blood pressure in spontaneously hypertensive rats. It counts as in vivo. As to the method:
Anti-Hypertensive Activity
Eight month old female, spontaneously hypertensive rats were given test compound once each day for 15 days. Prior to the experiment and on days 8 and 15, the rats were fasted overnight from 5.00 pm and blood pressure was recorded the following morning, immediately prior to dosing and again 2 h later. Food was returned after the 2 h blood pressure reading.
The results below were obtained using the compound of Example 3 as the test compound.

Where [3] appears, read: Mus musculus, 192 h, read-out: % REDUCTION IN AREA UNDER BLOOD GLUCOSE CURVE.

On to “5-(4-[2-(N-Methyl-N-(2-benzoxazolyl)amino)ethoxy]benzyl)-2,4-thiazolidinedione hemihydrate [Example 3]”, for which, in series [1] (level in diet 10 μmol kg^-1 of diet), the “% REDUCTION IN AREA UNDER BLOOD GLUCOSE CURVE” value was determined as 39%. The Blood pressure was 210 ± 13 mm Hg in series [2] (10 μmole/kg once each day, Day 0 (prior to the experiment), 0 hours); 191 ± 6 mm Hg in series [2] (10 μmole/kg once each day, Day 8, 0 hours (immediately prior to dosing)); 185 ± 12 mm Hg in series [2] (10 μmole/kg once each day, Day 8, 2 hours after dosing); 198 ± 17 mm Hg in series [2] (10 μmole/kg once each day, Day 15, 0 hours (immediately prior to dosing)); 185 ± 5 mm Hg in series [2] (10 μmole/kg once each day, Day 15, 2 hours after dosing); 210 ± 13 mm Hg in series [2] (30 μmole/kg once each day, Day 0 (prior to the experiment), 0 hours). Further, the Blood pressure in series [2] (30 μmole/kg once each day, Day 8, 0 hours (immediately prior to dosing)) came to 181 ± 11 mm Hg; in series [2] (30 μmole/kg once each day, Day 8, 2 hours after dosing) it was 174 ± 15 mm Hg; in series [2] (30 μmole/kg once each day, Day 15, 0 hours (immediately prior to dosing)), 178 ± 18 mm Hg; in series [2] (30 μmole/kg once each day, Day 15, 2 hours after dosing), 170 ± 13 mm Hg.

For the compound `CN(CCOc1ccc(CC2SC(=O)NC2=O)cc1)c1nc2ccccc2s1` (centres unmarked) [Example 1, 5-(4-[2-(N-Methyl-N-(2-benzothiazolyl)amino)ethoxy]benzyl)-2,4-thiazolidinedione], in series [1] (setting [3]), the inhibition in vivo at 100 µmol/kg stood at 51%.

On to `CN(CCOc1ccc(/C=C2\SC(=O)NC2=O)cc1)c1nc2ccccc2s1` [Example 2, 5-(4-[2-(N-Methyl-N-(2-benzothiazolyl)amino)ethoxy]benzylidene)-2,4-thiazolidinedione], for which the inhibition in vivo at 300 µmol/kg in series [1] (setting [3]) is 30%.

`CN(CCOc1ccc(/C=C2\SC(=O)NC2=O)cc1)c1nc2ccccc2o1` [Example 4, 5-(4-[2-(N-Methyl-N-(2-benzoxazolyl)amino)ethoxy]benzylidene)-2,4-thiazolidinedione]: the inhibition in vivo at 300 µmol/kg in series [1] (setting [3]) was 30%.

Turning to `CN(CCOc1ccc(CC2SC(=O)NC2=O)cc1)c1ncccn1` (centres unmarked) [Example 5, 5-(4-[2-(N-Methyl-N-(2-pyrimidinyl)amino)ethoxy]benzyl)-2,4-thiazolidinedione], the inhibition in vivo at 100 µmol/kg in series [1] (setting [3]) came out at 40%.

For the compound `Cc1nc(N(C)CCOc2ccc(CC3SC(=O)NC3=O)cc2)sc1C` (centres unmarked) [Example 7], the inhibition in vivo at 50 µmol/kg in series [1] (Mus musculus, 192 h, level in diet 50 μmol kg^-1 of diet, read-out: % REDUCTION IN AREA UNDER BLOOD GLUCOSE CURVE) was determined as 47%.

On to `Cc1nc(N(C)CCOc2ccc(/C=C3\SC(=O)NC3=O)cc2)sc1C` [Example 8, 5-(4-[2-(N-Methyl-N-[2-(4,5-dimethylthiazolyl)]amino)ethoxy]benzylidene)-2,4-thiazolidinedione], for which the melting point was determined as 175 °C.

`CN(CCOc1ccc(CC2SC(=O)NC2=O)cc1)c1nccs1` (centres unmarked) [Example 9, 5-(4-[2-(N-Methyl-N-(2-thiazolyl)amino)ethoxy]benzyl)-2,4-thiazolidinedione] yielded a melting point of 186 °C. In addition, the inhibition in vivo at 100 µmol/kg in series [1] (setting [3]) was 58%.

The compound `CN(CCOc1ccc(CC2SC(=O)NC2=O)cc1)c1nc(-c2ccccc2)cs1` (centres unmarked) [Example 11, 5-[4-(2-(N-Methyl-N-(2-(4-phenylthiazolyl))amino)ethoxy)benzyl]-2,4-thiazolidinedione] came in with a melting point of 62 to 65 °C. For the same compound, the inhibition in vivo at 100 µmol/kg in series [1] (setting [3]) stood at 34%.

As for `CN(CCOc1ccc(/C=C2\SC(=O)NC2=O)cc1)c1nc(-c2ccccc2)cs1` [Example 12, 5-(4-[2-(N-Methyl-N-(2-(4-phenylthiazolyl))amino)ethoxy]benzylidene)-2,4-thiazolidinedione], the melting point stood at 134 °C.

Take `Cc1sc(N(C)CCOc2ccc(CC3SC(=O)NC3=O)cc2)nc1-c1ccccc1` (centres unmarked) [Example 13, 5-(4-[2-(N-Methyl-N-[2-(4-phenyl-5-methylthiazolyl)]amino)ethoxy]benzyl)-2,4-thiazolidinedione]: the melting point was 60 to 62 °C. For the same compound, the inhibition in vivo at 100 µmol/kg in series [1] (setting [3]) is 37%.

Compound `Cc1nc(N(C)CCOc2ccc(CC3SC(=O)NC3=O)cc2)sc1-c1ccccc1` (centres unmarked) [Example 15, 5-(4-[2-(N-Methyl-N-[2-(4-methyl-5-phenylthiazolyl)]amino)ethoxy]benzyl)-2,4-thiazolidinedione] registered a melting point of 174 °C. In addition, the inhibition in vivo at 100 µmol/kg in series [1] (setting [3]) was determined as 39%.

As for `Cc1csc(N(C)CCOc2ccc(CC3SC(=O)NC3=O)cc2)n1` (centres unmarked) [Example 17, 5-(4-[2-(N-Methyl-N-[2-(4-methylthiazolyl)]amino)ethoxy]benzyl)-2,4-thiazolidinedione], the inhibition in vivo at 100 µmol/kg in series [1] (setting [3]) was determined as 34%.

For the compound `CN(CCOc1ccc(CC2SC(=O)NC2=O)cc1)c1ncc(-c2ccccc2)o1` (centres unmarked) [Example 19, 5-[4-(2-(N-Methyl-N-[2-(5-phenyloxazolyl)]amino)ethoxy)benzyl]-2,4-thiazolidinedione], the melting point was 200 °C. The inhibition in vivo at 30 µmol/kg in series [1] (setting [3]) was 22%.

In turn, `CN(CCOc1ccc(/C=C2\SC(=O)NC2=O)cc1)c1ncc(-c2ccccc2)o1` [Example 20, 5-(4-[2-(N-Methyl-N-[2-(5-phenyloxazolyl)]amino)ethoxy]benzylidene)-2,4-thiazolidinedione] came in with a melting point of 191 °C.

For the compound `Cc1nc(N(C)CCOc2ccc(CC3SC(=O)NC3=O)cc2)oc1C` (centres unmarked) [Example 21, 5-(4-[2-(N-Methyl-N-[2-(4,5-dimethyloxazolyl)]amino)ethoxy]benzyl)-2,4-thiazolidinedione], the inhibition in vivo at 30 µmol/kg in series [1] (setting [3]) is 33%.

The compound `O=C1NC(=O)/C(=C/c2ccc(OCCNc3ncccn3)cc2)S1` [Example 24, 5-[4-(2-(2-Pyrimidinylamino)ethoxy)benzylidene]-2,4-thiazolidinedione] yielded a melting point of 234 °C. Besides, the inhibition in vivo at 30 µmol/kg in series [1] (setting [3]) is 15%.

With `CC(=O)N(CCOc1ccc(CC2SC(=O)NC2=O)cc1)c1ncccn1` (centres unmarked) [Example 25, 5-(4-[2-(N-Acetyl-N-(2-pyrimidinyl)amino)ethoxy]benzyl)-2,4-thiazolidinedione], in series [1] (setting [3]), the inhibition in vivo at 30 µmol/kg turned out to be 19%.

On to `O=C1NC(=O)C(Cc2ccc(OCCN(Cc3ccccc3)c3nc4ccccc4s3)cc2)S1` (centres unmarked) [Example 27, 5-(4-(2-(N-(2-Benzothiazolyl)-N-benzylamino)ethoxy)benzyl)-2,4-thiazolidinedione], for which the inhibition in vivo at 300 µmol/kg in series [1] (setting [3]) is 56%.

`CN(CCCOc1ccc(/C=C2\SC(=O)NC2=O)cc1)c1nc2ccccc2o1` [Example 29, 5-(4-[3-(N-Methyl-N-(2-benzoxazolyl)amino)propoxy]benzylidene)-2,4-thiazolidinedione] registered a melting point of 202 to 204 °C. Moreover, the inhibition in vivo at 300 µmol/kg in series [1] (setting [3]) worked out at 32%.

In the case of `CN(CCOc1ccc(/C=C2\SC(=O)NC2=O)cc1)c1ccccn1` [Example 31, 5-(4-[2-(N-Methyl-N-(2-pyridyl)amino)ethoxy]benzylidene)-2,4-thiazolidinedione], the melting point is 177 to 179 °C.

Compound `CN(CCCCOc1ccc(/C=C2\SC(=O)NC2=O)cc1)c1nc2ccccc2o1` [Example 32, 5-(4-[4-(N-Methyl-N-(2-benzoxazolyl)amino)butoxy]benzylidene)-2 4-thiazolidinedione] gave a melting point of 168 °C.

With `CN(CCCCOc1ccc(CC2SC(=O)NC2=O)cc1)c1nc2ccccc2o1` (centres unmarked) [Example 33, 5-(4-[4-(N-Methyl-N-(2-benzoxazolyl)amino)butoxy]benzyl)-2,4-thiazolidinedione], the melting point worked out at 112 °C. Besides, the inhibition in vivo at 300 µmol/kg in series [1] (setting [3]) was found to be 25%.

The compound `O=C1NC(=O)C(Cc2ccc(OCCNc3nc4ccccc4o3)cc2)S1` (centres unmarked) [Example 35, 5-(4-[2-(N-(2-Benzoxazolyl)amino)ethoxy]benzyl)-2,4-thiazolidinedione] showed a melting point of 202 to 203 °C. Also, the inhibition in vivo at 100 µmol/kg in series [1] (setting [3]) was found to be 44%.

For the compound `CC(C)N(CCOc1ccc(CC2SC(=O)NC2=O)cc1)c1nc2ccccc2o1` (centres unmarked) [Example 36, 5-(4-[2-(N-Isopropyl-N-(2-benzoxazolyl)amino)ethoxy]benzyl)-2,4-thiazolidinedione], the inhibition in vivo at 100 µmol/kg in series [1] (setting [3]) is 20%.
